In PubChem BioAssay (NCI):
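Five concentrations, 48 hours, 96-well plates. GI50: concentration for 50% inhibition of growth. TGI is the concentration that stops growth completely.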

Key:
Test in all cases: growth of human tumour cells (NCI), 48 h
[1] = test system: MOLT-4 leukemia
[2] = test system: CAKI-1 renal
[3] = test system: UACC-257 melanoma
[4] = test system: SK-MEL-5 melanoma
[5] = test system: SF-295 CNS
[6] = test system: NCI-H522 lung
[7] = test system: LOX IMVI melanoma
[8] = test system: SN12C renal
[9] = test system: SW-620 colon
[10] = test system: KM12 colon
[11] = test system: MALME-3M melanoma
[12] = test system: SK-OV-3 ovarian
[13] = test system: HT29 colon
[14] = test system: SNB-19 CNS
[15] = test system: OVCAR-5 ovarian
[16] = test system: HL-60(TB) leukemia
[17] = test system: OVCAR-8 ovarian
[18] = test system: BT-549 breast
[19] = test system: SK-MEL-2 melanoma
[20] = test system: PC-3 prostate
[21] = test system: MDA-MB-435
[22] = test system: K-562 leukemia
[23] = test system: SF-268 CNS
[24] = test system: SK-MEL-28 melanoma
[25] = test system: MCF7 breast
[26] = test system: COLO 205 colon
[27] = test system: MDA-MB-468 breast
[28] = test system: CCRF-CEM leukemia
[29] = test system: SNB-75 CNS
[30] = test system: NCI-H23 lung
[31] = test system: M14 melanoma
[32] = test system: OVCAR-3 ovarian
[33] = test system: NCI-H460 lung
[34] = test system: A498 renal
[35] = test system: TK-10 renal
[36] = test system: SR leukemia
[37] = test system: HCT-116 colon
[38] = test system: HCT-15 colon
[39] = test system: DU-145 prostate
[40] = test system: T-47D breast
[41] = test system: NCI/ADR-RES ovarian
[42] = test system: OVCAR-4 ovarian
[43] = test system: NCI-H226 lung
[44] = test system: U251 CNS
[45] = test system: SF-539 CNS
[46] = test system: RPMI-8226 leukemia
[47] = test system: HOP-62 NSCLC
[48] = test system: 786-0 renal
[49] = test system: UACC-62 melanoma
[50] = test system: ACHN renal
[51] = test system: MDA-MB-231 breast
[52] = test system: UO-31 renal
[53] = test system: RXF 393 renal
[54] = test system: HS 578T breast
[55] = test system: IGROV1 ovarian
[56] = test system: EKVX NSCLC
[57] = test system: A549 NSCLC
[58] = test system: HCC-2998 colon
[59] = test system: HOP-92 NSCLC

S=C(NCCc1ccccc1)Nc1ccc(OCc2nc3ccc(Cl)cc3[nH]2)cc1
GI50 [1]: 2.46 µM | TGI [1]: 7.51 µM | GI50 [2]: 4.32 µM | TGI [2]: 17.7 µM | GI50 [3]: 13.7 µM | TGI [3]: 27.4 µM | GI50 [4]: 12.7 µM | TGI [4]: 25.7 µM | GI50 [5]: 7.08 µM | TGI [5]: 21.7 µM | GI50 [6]: 2.22 µM | TGI [6]: 7.02 µM | GI50 [7]: 4.02 µM | TGI [7]: 16.1 µM | GI50 [8]: 6.28 µM | TGI [8]: 20.1 µM | GI50 [9]: 9.72 µM | TGI [9]: 22.7 µM | GI50 [10]: 10.5 µM | TGI [10]: 23.6 µM | GI50 [11]: 12.5 µM | TGI [11]: 25.2 µM | GI50 [12]: 14.2 µM | TGI [12]: 27.9 µM | GI50 [13]: 9.67 µM | TGI [13]: 24.4 µM | GI50 [14]: 11.6 µM | TGI [14]: 23.8 µM | GI50 [15]: 11.5 µM | TGI [15]: 23.6 µM | GI50 [16]: 1.26 µM | TGI [16]: 4.35 µM | GI50 [17]: 11.9 µM | TGI [17]: 30.4 µM | GI50 [18]: 10.4 µM | TGI [18]: 22.5 µM | GI50 [19]: 13.1 µM | TGI [19]: 26.2 µM | GI50 [20]: 6.8 µM | TGI [20]: 22.9 µM | GI50 [21]: 4.36 µM | TGI [21]: 17.6 µM | GI50 [22]: 3.04 µM | TGI [22]: 20 µM | GI50 [23]: 11.1 µM | TGI [23]: 27.1 µM | GI50 [24]: 12.6 µM | TGI [24]: 25.3 µM | GI50 [25]: 3.14 µM | TGI [25]: 15.5 µM | GI50 [26]: 12.4 µM | TGI [26]: 28 µM | GI50 [27]: 3.78 µM | TGI [27]: 17.4 µM | GI50 [28]: 3.06 µM | TGI [28]: 14.8 µM | GI50 [29]: 1.63 µM | TGI [29]: 14.9 µM | GI50 [30]: 10.9 µM | TGI [30]: 23.7 µM | GI50 [31]: 9.53 µM | TGI [31]: 22 µM | GI50 [32]: 3.51 µM | TGI [32]: 17.1 µM | GI50 [33]: 4.31 µM | TGI [33]: 17.3 µM | GI50 [34]: 10.4 µM | TGI [34]: 22.7 µM | GI50 [35]: 13.8 µM | TGI [35]: 27.3 µM | GI50 [36]: 2.2 µM | TGI [36]: 6.99 µM | GI50 [37]: 4.65 µM | TGI [37]: 17.6 µM | GI50 [38]: 4.9 µM | TGI [38]: 18 µM | GI50 [39]: 12 µM | TGI [39]: 25 µM | GI50 [40]: 5.61 µM | TGI [40]: 25.3 µM | GI50 [41]: 7.15 µM | TGI [41]: 25.5 µM | GI50 [42]: 7 µM | TGI [42]: 23.9 µM | GI50 [43]: 12.9 µM | TGI [43]: 35.5 µM | GI50 [44]: 13.1 µM | TGI [44]: 27.1 µM | GI50 [45]: 8.77 µM | TGI [45]: 20.9 µM | GI50 [46]: 4.54 µM | TGI [46]: 45.5 µM | GI50 [47]: 14 µM | TGI [47]: 28.7 µM | GI50 [48]: 7.67 µM | TGI [48]: 21.4 µM | GI50 [49]: 7.94 µM | TGI [49]: 20.8 µM | GI50 [50]: 7.74 µM | TGI [50]: 20.4 µM | GI50 [51]: 5.75 µM | TGI [51]: 19.4 µM | GI50 [52]: 3.37 µM | TGI [52]: 16 µM | GI50 [53]: 4.07 µM | TGI [53]: 17.1 µM | GI50 [54]: 8.41 µM | TGI [54]: 31.9 µM | GI50 [55]: 6.26 µM | TGI [55]: 19.9 µM | GI50 [56]: 7.97 µM | TGI [56]: 21.2 µM | GI50 [57]: 12.6 µM | TGI [57]: 31.5 µM | GI50 [58]: 6.1 µM | TGI [58]: 20.4 µM | GI50 [59]: 3.52 µM | TGI [59]: 17 µM
